For series [1] the following is noted: human, 5000 µM.
Description: Solubility ratio ([HbS+drug (5 mM)]/[HbS-drug])
The conditions of series [2]: human, 20000 µM.
Description: Solubility ratio ([HbS+drug (20 mM)]/[HbS-drug]
For series [3] the following is noted: human, 10000 µM.
For series [4] the following is noted: human, 40000 µM.
Description: Solubility ratio ([HbS+drug (40 mM)]/[HbS-drug])

For 45 compounds, Solubility ratio results are on record in ChEMBL document CHEMBL1122711, “Design, synthesis, and testing of potential antisickling agents. 4. Structure-activity relationships of benzyloxy and phenoxy acids” (J Med Chem, 1984).

Regarding `Nc1ccc(CSCC(=O)O)cc1`, the Solubility ratio in series [1] was found to be 1.006; in series [2], 1.076; in series [3] it was 1.031; in series [4], 1.174.
The matching figures for `O=C(O)COc1cccc(Cl)c1Cl`: 1.025, 1.09, 1.057 and 1.135.
The matching figures for `O=C(O)COc1ccc(Br)cc1`: 1.049, 1.18, 1.093 and 1.317.
Turning to `O=C(O)CSc1c(F)c(F)c(F)c(F)c1F`, the Solubility ratio in series [1] turned out to be 1.025; in series [2], 1.117; in series [3] it was 1.053; in series [4], 1.236.
The matching figures for `Cc1cc(Br)c(OCC(=O)O)c(Br)c1`: 1.077, 1.139, 1.043 and 1.284.
For the compound `Cc1ccc(COCC(=O)O)c(C)c1`, the Solubility ratio in series [1] came out at 1.05; in series [2] it was 1.163; in series [3] it was 1.054; in series [4], 1.325.
Take `O=C(O)COCc1ccc(I)cc1`: the Solubility ratio worked out at 1.039 in series [1], 1.236 in series [2], 1.09 in series [3] and 1.35 in series [4].
In the case of `O=C(O)COCc1cc(Cl)cc(Cl)c1`, the Solubility ratio turned out to be 1.076 in series [1], 1.33 in series [2], 1.149 in series [3] and 1.382 in series [4].
The matching figures for `Cc1cc(C)cc(OCC(=O)O)c1`: 1.035, 1.141, 1.048 and 1.31.
In the case of `Cc1cc(C)cc(COCC(=O)O)c1`, the Solubility ratio was found to be 1.01 in series [1], 1.129 in series [2], 1.031 in series [3] and 1.315 in series [4].
On to `Cc1cc(OCC(=O)O)cc(C)c1Br`, for which the Solubility ratio in series [1] is on record as 0.996; in series [2], 1.063; in series [3], 1.004; in series [4], 1.092.
With `Cc1ccc(C)c(OCC(=O)O)c1`, the Solubility ratio in series [1] is 1.031; in series [2] it was 1.114; in series [3] it was 1.055; in series [4] it was 1.248.
Take `O=C(O)COc1ccc2c(c1)oc1ccccc12`: the Solubility ratio in series [1] was 1.033; in series [2], 1.09; in series [3], 1.054; in series [4], 1.185.
The matching figures for `O=C(O)COCc1ccc(Oc2ccccc2)cc1`: 1.034, 1.165, 1.088 and 1.162.
The matching figures for `O=C(O)COc1ccc2c(c1)Cc1ccccc1-2`: 1.029, 1.067, 1.042 and 1.113.
The matching figures for `O=C(O)COCc1ccc(Cl)cc1`: 1.065, 1.206, 1.104 and 1.396.
For the compound `COc1cc(OC)cc(OCC(=O)O)c1`, the Solubility ratio was determined as 1.03 in series [1], 1.12 in series [2], 1.052 in series [3] and 1.232 in series [4].
The matching figures for `O=C(O)COc1ccc(Cl)c(Cl)c1`: 1.061, 1.234, 1.117 and 1.339.
The matching figures for `CC(C)(Oc1ccc(Cl)cc1)C(=O)Oc1ccccc1C(=O)O`: 1.022, 1.153, 1.044 and 1.109.
The matching figures for `Cc1ccc(COCC(=O)O)cc1C`: 1.06, 1.142, 1.086 and 1.289.
As to `COc1cc(OCC(=O)O)cc(OC)c1OC`, the Solubility ratio in series [1] came out at 0.987; in series [2], 1.015; in series [3], 1.013; in series [4], 1.047.
The matching figures for `Cc1ccc(COCC(=O)O)cc1`: 1.017, 1.137, 1.059 and 1.304.
`O=C(O)CSc1cc(Cl)c(Cl)cc1Cl`: the Solubility ratio amounted to 1.018 in series [1], 1.07 in series [2], 1.032 in series [3] and 1.12 in series [4].
Turning to `O=C(O)COc1ccc([N+](=O)[O-])cc1`, the Solubility ratio is given as 0.983 in series [1], 1.329 in series [2], 1.043 in series [3] and 1.344 in series [4].
The matching figures for `O=C(O)CSc1ccc(Br)cc1`: 1.023, 1.113, 1.063 and 1.261.
As for `CSc1ccc(OCC(=O)O)cc1`, the Solubility ratio in series [1] stood at 1.035; in series [2], 1.16; in series [3] it was 1.027; in series [4], 1.223.
`Cc1cc(OCC(=O)O)ccc1Cl`: the Solubility ratio worked out at 1.05 in series [1], 1.171 in series [2], 1.08 in series [3] and 1.275 in series [4].
The matching figures for `O=C(O)COc1ccc2c(c1)CCC2`: 1.054, 1.247, 1.134 and 1.322.
Consider `O=C(O)COc1ccc(Cl)cc1`, for which the Solubility ratio came out at 1.04 in series [1], 1.163 in series [2], 1.08 in series [3] and 1.287 in series [4].
The matching figures for `O=C(O)CSCc1ccc(Br)cc1`: 1.024, 1.131, 1.053 and 1.307.
`O=C(O)CCOCc1ccc(Cl)c(Cl)c1`: the Solubility ratio in series [1] was 1.062; in series [2], 1.305; in series [3], 1.142; in series [4], 1.395.
The matching figures for `O=C(O)COCc1ccc(Cl)c(Cl)c1`: 1.083, 1.309, 1.162 and 1.32.
With `COc1cc(Cl)ccc1COCC(=O)O`, the Solubility ratio came to 1.062 in series [1], 1.233 in series [2], 1.121 in series [3] and 1.311 in series [4].
The matching figures for `COc1ccc(COCC(=O)O)cc1`: 0.996, 1.054, 1.012 and 1.149.
The matching figures for `O=C(O)COc1ccc(I)cc1`: 1.04, 1.09, 1.046 and 1.176.
The matching figures for `C=CCc1ccc(OCC(=O)O)c(OC)c1`: 1.033, 1.141, 1.043 and 1.245.
As to `Cc1cc(C)c(COCC(=O)O)c(C)c1`, the Solubility ratio in series [1] was 1.031; in series [2], 1.163; in series [3] it was 1.054; in series [4], 1.31.
The matching figures for `COc1cc(COCC(=O)O)ccc1C`: 1.034, 1.145, 1.081 and 1.248.
Turning to `Nc1ccc(OCC(=O)O)cc1`, the Solubility ratio in series [1] amounted to 1; in series [2], 1.113; in series [3] it was 1.01; in series [4], 1.145.
In the case of `O=C(O)C(CCOc1ccc(Br)cc1)C(=O)O`, the Solubility ratio was found to be 1.057 in series [1], 1.323 in series [2], 1.134 in series [3] and 1.36 in series [4].
The matching figures for `O=C(O)CSc1ccc(Cl)cc1`: 1.026, 1.168, 1.069 and 1.296.
With `COc1cccc(OCC(=O)O)c1OC`, the Solubility ratio in series [1] was 1.017; in series [2], 1.064; in series [3], 1.036; in series [4] it was 1.144.
The matching figures for `O=C(O)COC(c1ccccc1)c1ccc(Cl)cc1` (centres undefined): 1.002, 1.103, 1.032 and 1.25.
For the compound `CC(C)(C)c1ccc(OCC(=O)O)cc1`, the Solubility ratio is 1.004 in series [1], 1.058 in series [2] and 1.012 in series [3].
As for `O=C(O)COCc1ccc(Br)cc1`, the Solubility ratio in series [1] came to 1.059; in series [2], 1.233; in series [3], 1.118; in series [4], 1.398.
